These results are taken from EPA's ToxValDB 9.5 (doi:10.2903/j.efsa.2009.186r).

≈ marks a conversion by molar mass, not a printed value.

The subject of one data set is Canidae. The conditions noted are these: chronic; duration: 1 years; oral; Dog Other; clinical signs.
Another data set concerns Tagia sp. The conditions noted are these: acute; duration: 14 days; mortality.
For another data set, the system named is Anas platyrhynchos. The conditions noted are these: acute; oral; unspecified; mortality.
Another data set deals with Apis mellifera. The conditions noted are these: acute; duration: 48 hours; oral; unspecified; mortality.
In the next data set the test system is Bibionidae. The conditions noted are these: chronic/long-term; duration: 28 days.
The test system of another data set is Daphnia magna. The conditions noted are these: chronic/long-term; duration: 21 days; reproduction.
For the next data set, the system named is Colinus virginianus. The conditions noted are these: for LD50: acute, oral, mortality.
In another data set the test system is Mus musculus. The conditions noted are these: acute; oral; mortality.
In the next data set the test system is Aphidius rhopalosiphi. The conditions noted are these: not reported; mortality.

With `Cc1c(COC(=O)[C@@H]2[C@H](/C=C(\Cl)C(F)(F)F)C2(C)C)cccc1-c1ccccc1` [Bifenthrin], the NOAEL is 1.5 mg/kg-day in the data set on Canidae; more than 2 mg/kg-day in the data set on Rattus norvegicus (developmental, development); 3 mg/kg-day in the data set on Rattus norvegicus (reproduction developmental, reproduction); 2.9 mg/kg-day in the data set on Rattus norvegicus (subchronic, duration: 90 days, oral, neurology). Also, the LC50 in the data set on Tagia sp. was more than 16 mg/kg; in the data set on Oncorhynchus mykiss (acute, duration: 96 hours, mortality), 0.1 ng/mL (≈ 0.236 nM). The LD50 was more than 2150 mg/kg in the data set with Anas platyrhynchos; 0.1 µg/piece in the data set on Apis mellifera; 569 mg/kg-day with Colinus virginianus (diet); 1800 mg/kg with Colinus virginianus; 42.5 mg/kg in the data set on Mus musculus. Moreover, the NOEC with Bibionidae came to 0.00032 mg/L; with Daphnia magna it was 9.5e-07 mg/L; in the data set on Colinus virginianus (reproduction developmental), 75 mg/kg-day; in the data set on Oncorhynchus mykiss (chronic/long-term, duration: 30 days, other) it was 1.2e-05 mg/L. In addition, the LEL with Aphidius rhopalosiphi was 60 g/ha.

As a reminder, the NOAEL is the highest tested level that showed no adverse finding.
